These results are taken from ChEMBL document CHEMBL4152360 (Bioorg Med Chem, 2018).

In experiment [1] the target is Calcium/calmodulin-dependent protein kinase kinase 2 (Homo sapiens) (UniProt Q96RR4). The experiment is described as follows: Inhibition of human CaMKKbeta assessed as enzyme residual activity at 100 nM by radiometric filter binding assay relative to control.
The target of experiment [2] is Serine/threonine-protein kinase Nek6 (Homo sapiens) (UniProt Q9HC98). The experiment is described as follows: Inhibition of human NEK6 assessed as enzyme residual activity at 100 nM by radiometric filter binding assay relative to control.
In experiment [3] the target is T1, Casein kinase II subunit alpha (Homo sapiens, UniProt P68400). The experiment in a line: Displacement of 5-TAMRA-labeled ARC-1530 from CK2alpha (unknown origin) (1 to 335 residues) after 15 to 60 mins by luminescence assay.
Target sequence in this assay (P68400 whole entry, looked up, the tested form may be a part): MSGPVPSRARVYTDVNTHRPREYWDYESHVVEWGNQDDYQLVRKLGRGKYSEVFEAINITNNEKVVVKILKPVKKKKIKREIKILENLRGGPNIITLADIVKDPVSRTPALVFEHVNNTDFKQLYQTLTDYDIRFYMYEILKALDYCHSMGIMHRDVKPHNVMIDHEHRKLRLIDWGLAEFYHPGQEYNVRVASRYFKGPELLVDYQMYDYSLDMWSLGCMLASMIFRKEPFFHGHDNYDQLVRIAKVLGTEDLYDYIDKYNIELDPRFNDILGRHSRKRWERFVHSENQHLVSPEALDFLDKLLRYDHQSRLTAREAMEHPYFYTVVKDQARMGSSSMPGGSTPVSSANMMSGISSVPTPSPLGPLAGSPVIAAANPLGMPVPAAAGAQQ
Experiment [4] addresses T1, Casein kinase II subunit alpha. The experiment is described as follows: Displacement of ARC-1504/ARC-1513-5O from CK2alpha (unknown origin) (1 to 335 residues) after 15 to 60 mins by luminescence assay.
Target sequence in this assay (P68400 whole entry, the tested form may be a part): as the sequence (P68400 whole entry, looked up, the tested form may be a part) above
Experiment [5] concerns the target Vascular endothelial growth factor receptor 1 (Homo sapiens) (UniProt P17948). The experiment is described as follows: Inhibition of human VEGFR1 assessed as enzyme residual activity at 100 nM by radiometric filter binding assay relative to control.
In experiment [6] the target is Casein kinase I isoform delta (Homo sapiens) (UniProt P48730). The experiment in a line: Inhibition of human CK1delta assessed as enzyme residual activity at 100 nM by radiometric filter binding assay relative to control.
Experiment [7] concerns the target Protein kinase C alpha type (Homo sapiens) (UniProt P17252). The experiment in a line: Inhibition of human PKCalpha assessed as enzyme residual activity at 100 nM by radiometric filter binding assay relative to control.
Experiment [8] addresses Mitogen-activated protein kinase kinase kinase 7 (Homo sapiens) (UniProt O43318). The experiment is described as follows: Inhibition of human TAK1 assessed as enzyme residual activity at 100 nM by radiometric filter binding assay relative to control.
Experiment [9] deals with Ephrin type-A receptor 2 (Homo sapiens) (UniProt P29317). The experiment is described as follows: Inhibition of human EPHA2 assessed as enzyme residual activity at 100 nM by radiometric filter binding assay relative to control.
For experiment [10], the target named is Tyrosine-protein kinase BTK (Homo sapiens) (UniProt Q06187). The experiment is described as follows: Inhibition of human BTK assessed as enzyme residual activity at 100 nM by radiometric filter binding assay relative to control.
Experiment [11] deals with Mitogen-activated protein kinase 14 (Homo sapiens) (UniProt Q16539). The experiment is described as follows: Inhibition of human p38alpha MAPK assessed as enzyme residual activity at 100 nM by radiometric filter binding assay relative to control.
Experiment [12] deals with Homeodomain-interacting protein kinase 2 (Homo sapiens) (UniProt Q9H2X6). The experiment in a line: Inhibition of human HIPK2 assessed as enzyme residual activity at 100 nM by radiometric filter binding assay relative to control.
The target in experiment [13] is Serine/threonine-protein kinase PLK1 (Homo sapiens) (UniProt P53350). The experiment in a line: Inhibition of human PLK1 assessed as enzyme residual activity at 100 nM by radiometric filter binding assay relative to control.
Experiment [14] deals with Receptor tyrosine-protein kinase erbB-4 (Homo sapiens) (UniProt Q15303). The experiment is described as follows: Inhibition of human HER4 assessed as enzyme residual activity at 100 nM by radiometric filter binding assay relative to control.
The species named for a further experiment is Homo sapiens. The experiment is described as follows: Inhibition of human PKA assessed as enzyme residual activity at 100 nM by radiometric filter binding assay relative to control.
The target in experiment [15] is 3-phosphoinositide-dependent protein kinase 1 (Homo sapiens) (UniProt O15530). The experiment is described as follows: Inhibition of human PDK1 assessed as enzyme residual activity at 100 nM by radiometric filter binding assay relative to control.
The target of experiment [16] is Serine/threonine-protein kinase STK11 (Homo sapiens) (UniProt Q15831). The experiment in a line: Inhibition of human LKB1 assessed as enzyme residual activity at 100 nM by radiometric filter binding assay relative to control.
Experiment [17] addresses Rho-associated protein kinase 2 (Rattus norvegicus) (UniProt Q62868). The experiment is described as follows: Inhibition of rat ROCK2 assessed as enzyme residual activity at 100 nM by radiometric filter binding assay relative to control.
Experiment [18] concerns the target Tyrosine-protein kinase JAK3 (Homo sapiens) (UniProt P52333). The experiment is described as follows: Inhibition of human JAK3 assessed as enzyme residual activity at 100 nM by radiometric filter binding assay relative to control.
The target of experiment [19] is Serine/threonine-protein kinase Chk2 (Homo sapiens) (UniProt O96017). The experiment is described as follows: Inhibition of human CHK2 assessed as enzyme residual activity at 100 nM by radiometric filter binding assay relative to control.
The target in experiment [20] is Myosin light chain kinase, smooth muscle (Homo sapiens) (UniProt Q15746). The experiment is described as follows: Inhibition of human SmMLCK assessed as enzyme residual activity at 100 nM by radiometric filter binding assay relative to control.

The source made the active and inactive calls. The rule behind the calls is not given here.

Receptor tyrosine-protein kinase erbB-4 (Homo sapiens), sequence (Q15303 whole entry): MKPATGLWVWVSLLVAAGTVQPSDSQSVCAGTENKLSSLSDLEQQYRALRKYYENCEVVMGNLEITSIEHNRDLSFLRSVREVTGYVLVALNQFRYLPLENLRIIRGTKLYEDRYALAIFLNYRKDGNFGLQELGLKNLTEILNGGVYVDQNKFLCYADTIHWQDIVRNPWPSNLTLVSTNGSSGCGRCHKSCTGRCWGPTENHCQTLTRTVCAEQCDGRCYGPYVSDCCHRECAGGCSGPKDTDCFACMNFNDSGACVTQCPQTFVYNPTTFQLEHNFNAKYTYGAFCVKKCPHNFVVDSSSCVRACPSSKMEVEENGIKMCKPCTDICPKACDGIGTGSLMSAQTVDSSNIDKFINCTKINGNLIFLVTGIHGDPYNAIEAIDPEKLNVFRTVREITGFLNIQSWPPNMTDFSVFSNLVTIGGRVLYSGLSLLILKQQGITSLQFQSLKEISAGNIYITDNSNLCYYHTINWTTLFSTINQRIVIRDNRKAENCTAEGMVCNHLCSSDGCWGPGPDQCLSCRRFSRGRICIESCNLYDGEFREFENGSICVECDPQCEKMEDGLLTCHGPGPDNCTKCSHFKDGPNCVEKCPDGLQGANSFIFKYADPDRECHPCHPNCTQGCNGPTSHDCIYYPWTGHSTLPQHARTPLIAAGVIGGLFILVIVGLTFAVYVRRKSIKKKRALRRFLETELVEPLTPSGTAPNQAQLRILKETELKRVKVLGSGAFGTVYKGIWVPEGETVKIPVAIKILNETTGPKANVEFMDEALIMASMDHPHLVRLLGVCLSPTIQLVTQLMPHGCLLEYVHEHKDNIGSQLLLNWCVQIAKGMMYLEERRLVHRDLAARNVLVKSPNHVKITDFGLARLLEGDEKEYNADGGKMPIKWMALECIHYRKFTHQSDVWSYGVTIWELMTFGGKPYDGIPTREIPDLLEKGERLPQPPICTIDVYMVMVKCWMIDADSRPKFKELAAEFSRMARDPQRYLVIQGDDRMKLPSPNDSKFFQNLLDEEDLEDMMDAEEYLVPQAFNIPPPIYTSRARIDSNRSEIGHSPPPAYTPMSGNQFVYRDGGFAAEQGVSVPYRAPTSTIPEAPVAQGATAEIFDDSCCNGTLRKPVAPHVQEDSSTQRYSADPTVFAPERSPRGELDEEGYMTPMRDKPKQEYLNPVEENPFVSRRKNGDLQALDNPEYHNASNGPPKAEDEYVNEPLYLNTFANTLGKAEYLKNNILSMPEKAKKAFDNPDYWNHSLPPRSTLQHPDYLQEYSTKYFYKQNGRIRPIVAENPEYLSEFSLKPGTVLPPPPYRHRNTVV
Rho-associated protein kinase 2 (Rattus norvegicus), sequence (Q62868 whole entry, looked up): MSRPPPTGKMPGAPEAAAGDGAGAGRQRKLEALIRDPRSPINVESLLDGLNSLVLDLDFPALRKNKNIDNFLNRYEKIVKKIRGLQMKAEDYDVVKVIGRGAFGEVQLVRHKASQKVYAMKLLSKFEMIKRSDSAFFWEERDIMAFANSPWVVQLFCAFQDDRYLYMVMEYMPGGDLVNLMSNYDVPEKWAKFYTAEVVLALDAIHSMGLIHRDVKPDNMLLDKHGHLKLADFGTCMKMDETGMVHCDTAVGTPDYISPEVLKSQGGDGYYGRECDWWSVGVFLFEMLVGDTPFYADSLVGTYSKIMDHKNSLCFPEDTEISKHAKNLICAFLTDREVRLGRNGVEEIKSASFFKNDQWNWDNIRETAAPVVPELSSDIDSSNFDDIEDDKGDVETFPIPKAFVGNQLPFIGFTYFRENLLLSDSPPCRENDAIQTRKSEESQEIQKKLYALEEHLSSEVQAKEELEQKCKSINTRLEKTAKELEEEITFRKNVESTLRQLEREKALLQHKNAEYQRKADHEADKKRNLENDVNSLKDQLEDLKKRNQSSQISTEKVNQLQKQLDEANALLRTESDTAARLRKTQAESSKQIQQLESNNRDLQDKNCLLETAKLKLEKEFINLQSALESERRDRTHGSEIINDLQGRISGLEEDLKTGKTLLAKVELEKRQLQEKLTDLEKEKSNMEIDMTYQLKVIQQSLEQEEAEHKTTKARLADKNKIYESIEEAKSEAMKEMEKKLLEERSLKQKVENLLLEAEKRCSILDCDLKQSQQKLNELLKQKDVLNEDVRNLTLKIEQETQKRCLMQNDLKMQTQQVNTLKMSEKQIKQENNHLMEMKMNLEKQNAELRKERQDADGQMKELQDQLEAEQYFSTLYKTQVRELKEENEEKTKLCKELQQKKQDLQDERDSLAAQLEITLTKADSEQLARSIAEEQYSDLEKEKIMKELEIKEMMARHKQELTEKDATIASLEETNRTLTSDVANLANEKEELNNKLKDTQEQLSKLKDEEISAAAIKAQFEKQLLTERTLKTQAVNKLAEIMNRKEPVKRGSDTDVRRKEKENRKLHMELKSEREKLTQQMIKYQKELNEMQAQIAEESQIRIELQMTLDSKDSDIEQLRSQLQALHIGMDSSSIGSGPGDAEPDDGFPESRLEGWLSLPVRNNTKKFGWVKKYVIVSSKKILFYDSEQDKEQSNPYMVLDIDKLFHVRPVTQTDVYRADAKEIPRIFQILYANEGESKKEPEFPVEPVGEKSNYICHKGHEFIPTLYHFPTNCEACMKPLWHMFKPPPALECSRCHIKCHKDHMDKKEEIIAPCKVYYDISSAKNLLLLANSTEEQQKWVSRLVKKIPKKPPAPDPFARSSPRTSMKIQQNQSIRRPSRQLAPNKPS
Calcium/calmodulin-dependent protein kinase kinase 2 (Homo sapiens), sequence (Q96RR4 2-588 limits assumed): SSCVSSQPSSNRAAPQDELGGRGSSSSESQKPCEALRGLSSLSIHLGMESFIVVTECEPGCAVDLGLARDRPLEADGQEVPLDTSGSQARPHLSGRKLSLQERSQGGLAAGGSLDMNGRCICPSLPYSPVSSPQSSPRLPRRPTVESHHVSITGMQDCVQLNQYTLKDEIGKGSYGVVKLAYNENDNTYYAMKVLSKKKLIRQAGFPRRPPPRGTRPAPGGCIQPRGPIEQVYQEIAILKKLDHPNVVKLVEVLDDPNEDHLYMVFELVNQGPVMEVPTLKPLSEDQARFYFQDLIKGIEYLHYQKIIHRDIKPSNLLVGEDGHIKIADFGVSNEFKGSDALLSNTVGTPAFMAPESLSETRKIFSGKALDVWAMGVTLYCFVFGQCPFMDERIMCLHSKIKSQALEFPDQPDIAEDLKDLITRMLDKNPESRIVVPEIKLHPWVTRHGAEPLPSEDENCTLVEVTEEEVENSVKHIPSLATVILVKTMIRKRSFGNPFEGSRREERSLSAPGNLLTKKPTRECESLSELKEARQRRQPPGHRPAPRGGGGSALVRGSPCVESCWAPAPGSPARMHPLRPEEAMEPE
Mitogen-activated protein kinase 14 (Homo sapiens), sequence (Q16539 whole entry): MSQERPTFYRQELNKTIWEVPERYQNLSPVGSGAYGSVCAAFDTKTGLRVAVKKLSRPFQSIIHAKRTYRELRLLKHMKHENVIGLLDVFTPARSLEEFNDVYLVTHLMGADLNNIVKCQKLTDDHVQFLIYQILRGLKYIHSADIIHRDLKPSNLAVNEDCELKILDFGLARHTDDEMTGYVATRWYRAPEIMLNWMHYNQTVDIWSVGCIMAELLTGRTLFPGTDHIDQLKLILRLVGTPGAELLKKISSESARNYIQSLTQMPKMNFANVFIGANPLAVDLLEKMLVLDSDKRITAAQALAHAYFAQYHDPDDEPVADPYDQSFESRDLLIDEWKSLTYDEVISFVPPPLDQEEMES
Tyrosine-protein kinase BTK (Homo sapiens), sequence (Q06187 whole entry): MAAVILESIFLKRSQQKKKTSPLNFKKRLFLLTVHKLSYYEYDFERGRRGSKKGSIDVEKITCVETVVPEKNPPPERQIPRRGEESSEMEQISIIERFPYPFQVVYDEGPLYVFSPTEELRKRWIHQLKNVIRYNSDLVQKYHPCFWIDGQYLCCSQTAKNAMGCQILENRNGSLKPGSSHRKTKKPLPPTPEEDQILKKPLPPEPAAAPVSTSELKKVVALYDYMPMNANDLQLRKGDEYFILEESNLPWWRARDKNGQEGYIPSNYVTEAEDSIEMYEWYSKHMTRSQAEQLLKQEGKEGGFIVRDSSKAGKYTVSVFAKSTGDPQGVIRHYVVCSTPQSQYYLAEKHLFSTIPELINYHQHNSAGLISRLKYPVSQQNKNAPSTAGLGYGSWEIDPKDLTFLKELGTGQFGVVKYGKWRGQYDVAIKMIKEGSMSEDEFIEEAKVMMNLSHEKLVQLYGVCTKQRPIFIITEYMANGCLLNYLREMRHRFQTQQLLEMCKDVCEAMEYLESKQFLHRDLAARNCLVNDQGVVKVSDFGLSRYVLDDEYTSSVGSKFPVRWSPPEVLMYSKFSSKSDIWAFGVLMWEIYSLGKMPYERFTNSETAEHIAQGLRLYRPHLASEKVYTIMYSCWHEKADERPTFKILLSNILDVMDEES
Serine/threonine-protein kinase Nek6 (Homo sapiens), sequence (Q9HC98 whole entry, the tested form may be a part): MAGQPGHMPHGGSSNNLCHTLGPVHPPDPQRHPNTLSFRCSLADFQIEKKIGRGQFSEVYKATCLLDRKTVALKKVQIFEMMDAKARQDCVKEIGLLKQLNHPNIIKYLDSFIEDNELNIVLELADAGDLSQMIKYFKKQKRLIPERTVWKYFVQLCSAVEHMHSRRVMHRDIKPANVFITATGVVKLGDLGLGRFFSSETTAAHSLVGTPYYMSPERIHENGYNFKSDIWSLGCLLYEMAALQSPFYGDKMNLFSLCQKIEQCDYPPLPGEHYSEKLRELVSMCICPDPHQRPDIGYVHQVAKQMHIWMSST

A word on the Kd: it is the concentration at which binding is half-saturated. For the molecule `NCCCC[C@@H](NC(=O)[C@@H](CC(=O)O)NC(=O)[C@@H](CC(=O)O)NC(=O)[C@@H](CC(=O)O)NC(=O)[C@@H](CC(=O)O)NC(=O)[C@@H](CC(=O)O)NC(=O)[C@@H](CC(=O)O)NC(=O)CCCCCNC(=O)CCC(=O)Nc1ncc(-c2ccc(C(=O)O)cc2)s1)C(=O)O`, the Activity in experiment [1] was found to be 120%; in experiment [2], 103%; in experiment [5] it was 87%; in [6] it was 107%; in [7], 95%; in experiment [8], 62%. The Activity in experiment [9] was determined as 107%; in [10] it was 99%; in experiment [11], 102%; in [12] it was 23%; in experiment [13], 83%; in experiment [14], 113%. The Activity in the experiment listed under Homo sapiens is 92%; in [15] it was 111%; in [16] it was 107%; in experiment [17] it was 96.5%; in [18], 85%; in experiment [19], 96%. In experiment [20], the Activity stood at 68%. The outcome in experiment [3] was Active. Moreover, the affinity in experiment [4], expressed as Kd, was 580 pM.
